Assay results taken from patent US7034035B2, “Fungicidal mono-, bi-, and tri-cycloheteroalkyl amides and their compositions, methods of use and preparation” (priority 1999, dated 2006).
Like-named read-outs stand apart in the source and are kept apart here.

Columns and labels:
[1] = system: Leptosphaeria nodorum—LEPTNO; assay: Glume Blotch of Wheat, in vivo whole plant, 24 Hour Protectant; conditions: Leptosphaeria, 24 h, inoculated after 24 hours, read-out: LEPTNO in vivo 1 Day Protectant
Ustilago maydis (USTIMA) = assay: microbe, parasite or virus in culture; format: cell-based
[2] = system: Rhizoctonia solani (RHIZSO); assay: microbe, parasite or virus in culture; format: cell-based
[3] = system: Puccinia recondita—PUCCRT; assay: Brown Rust of Wheat, in vivo whole plant, 24 Hour Protectant; conditions: Puccinia; wheat (cultivar Yuma), sprayed at 100 ppm, inoculated after 24 hours; control of fungal infection vs untreated plants; read-out: PUCCRT in vivo 1 Day Protectant
[4] = wheat (cultivar Yuma), sprayed at 100 ppm, control of fungal infection vs untreated plants
[5] = wheat plants sprayed at 100 ppm, control vs untreated plants

| SMILES | pest or weed control at 100 ppm [1, 4] | USTIMA in vitro Growth Inhibition (Ustilago maydis (USTIMA)) | RHIZSO in vitro Growth Inhibition [2] | further results |
| --- | --- | --- | --- | --- |
| COc1ccnc(C(=O)Nc2ccc(OCc3ccc(C(F)(F)F)cc3)cc2)c1O [Compound 448] | 75 to 100% | – | – | – |
| COc1ccnc(C(=O)Nc2cccc(Oc3ccc(Cl)cc3)c2)c1O [Compound 440] | 75 to 100% | – | – | – |
| CO/N=C(/c1ccc(NC(=O)c2nccc(OC)c2O)cc1)c1ccc(C(F)(F)F)cc1 [Compound 409] | 75 to 100% | – | – | – |
| CC(C)C(=O)O[C@H]1[C@H](C)OC(=O)[C@@H](NC(=O)c2ccncc2O)COC(=O)[C@@H]1Cc1ccccc1 [Compound 513] | – | – | – | pest or weed control at 100 ppm [1, 5]: 75 to 100% |
| COc1ccnc(C(=O)NC2CC(C)(C)CC(C)(COCC(Cl)CCl)C2)c1O (stereo not drawn) [Compound 257] | 75 to 100% | + (key: +: at least 80% growth inhibition; −: less than 80% growth inhibition) | − (key: +: at least 80% growth inhibition; −: less than 80% growth inhibition) | – |
| O=C(Nc1ccc(Oc2ccccc2)cc1)c1cccnc1O [Compound 522] | – | – | – | pest or weed control at 100 ppm [1, 5]: 75 to 100% |
| COc1ccnc(C(=O)N[C@H]2COC(=O)[C@H](Cc3ccccc3)C[C@H](C)OC2=O)c1O [Compound 382] | 75 to 100% | – | – | – |
| COc1ccnc(C(=O)N[C@H]2COC(=O)[C@H](Cc3ccccc3)[C@@H](OC(C)=O)[C@H](C)OC2=O)c1O [Compound 385] | 75 to 100% | – | – | – |
| COc1nc(O)c(C(=O)N[C@H]2COC(=O)[C@H](Cc3ccccc3)[C@@H](OC(=O)C(C)C)[C@H](C)OC2=O)nc1Cl [Compound 537] | – | – | – | pest or weed control at 100 ppm [1, 5]: 75 to 100% |
| COc1ccnc(C(=O)NC(COC(=O)CC(C)O[Si](C)(C)C(C)(C)C)C(=O)OC(C)C)c1O (stereo not drawn) [Compound 354] | – | – | – | pest or weed control at 100 ppm [3]: 75 to 100% |
| COc1ccnc(C(=O)Nc2ccc(OC3CC(C)(C)CC(C)(C)C3)cc2)c1O [Compound 458] | – | – | – | pest or weed control at 100 ppm [1, 5]: 75 to 100% |
| COc1ccnc(C(=O)NC(C(=O)OCC(C)C)C(C)OC(=O)C(C)Cc2ccccc2)c1O (stereo not drawn) [Compound 360] | 75 to 100% | – | – | – |
| COc1ccnc(C(=O)NC(COC(=O)C(Cc2ccccc2)C(C)O[Si](C)(C)C(C)(C)C)C(=O)OC(C)C)c1O (stereo not drawn) [Compound 357] | – | – | – | pest or weed control at 100 ppm [3]: 75 to 100% |
| CC(C)C(=O)O[C@H]1[C@H](C)OC(=O)[C@@H](NC(=O)c2nscc2O)COC(=O)[C@@H]1Cc1ccccc1 [Compound 550] | – | – | – | pest or weed control at 100 ppm [1, 5]: 75 to 100% |
| COc1ccnc(C(=O)NC(C)c2ccc(Cl)cc2)c1O (stereo not drawn) [Compound 246] | 75 to 100% | − (key: +: at least 80% growth inhibition; −: less than 80% growth inhibition) | − (key: +: at least 80% growth inhibition; −: less than 80% growth inhibition) | – |
| COc1ccnc(C(=O)Nc2ccc(OC3CC(C)(C)OC(C)(C)C3)cc2)c1O [Compound 459] | – | – | – | pest or weed control at 100 ppm [1, 5]: 75 to 100% |
| COc1ccnc(C(=O)N[C@H]2COC(=O)[C@H](Cc3ccccc3)[C@@H](OC(=O)C(C)(C)C)[C@H](C)OC2=O)c1O [Compound 388] | 75 to 100% | – | – | – |
| C=C(C)C(=O)O[C@H]1[C@H](C)OC(=O)[C@@H](NC(=O)c2nccc(OC)c2O)COC(=O)[C@@H]1Cc1ccccc1 [Compound 386] | 75 to 100% | – | – | – |
| COc1ccnc(C(=O)N[C@H]2CC3CC2[C@H](COCc2cccc(C(F)(F)F)c2)C3)c1O (stereo partly drawn) [Compound 294] | 75 to 100% | − (key: +: at least 80% growth inhibition; −: less than 80% growth inhibition) | + (key: +: at least 80% growth inhibition; −: less than 80% growth inhibition) | – |
| COc1ccnc(C(=O)NCC2C(C=C(C)C)C2(C)C)c1O (stereo not drawn) [Compound 241] | – | − (key: +: at least 80% growth inhibition; −: less than 80% growth inhibition) | + (key: +: at least 80% growth inhibition; −: less than 80% growth inhibition) | – |
| CC(C)C(=O)OC1CCC(NC(=O)c2ncccc2O)CC1 (stereo not drawn) [Compound 210] | – | − (key: +: at least 80% growth inhibition; −: less than 80% growth inhibition) | − (key: +: at least 80% growth inhibition; −: less than 80% growth inhibition) | – |
| COc1ccnc(C(=O)NC2COC3(CC(C)(C)CC(C)(C)C3)OC2)c1O [Compound 315] | – | − (key: +: at least 80% growth inhibition; −: less than 80% growth inhibition) | − (key: +: at least 80% growth inhibition; −: less than 80% growth inhibition) | – |
| CCC1(C)OCC(NC(=O)c2nccc(OC)c2O)CO1 (stereo not drawn) [Compound 314] | – | − (key: +: at least 80% growth inhibition; −: less than 80% growth inhibition) | − (key: +: at least 80% growth inhibition; −: less than 80% growth inhibition) | – |
| COc1ccnc(C(=O)N[C@@H](Cc2ccc(OCc3ccccc3)cc2)C(=O)O)c1O [Compound 337] | 75 to 100% | − (key: +: at least 80% growth inhibition; −: less than 80% growth inhibition) | − (key: +: at least 80% growth inhibition; −: less than 80% growth inhibition) | – |
